Results on 24 molecules are retold here after US8575163B2, “Pyrrolopyridinylpyrimidin-2-ylamine derivatives” (Merck Patent GmbH, priority 2009, dated 2013).

The target of test [1] is T1, PDK1 (Homo sapiens, UniProt O15530).
T1 construct: His6 (N)
T1 sequence (O15530 51-556 limits assumed): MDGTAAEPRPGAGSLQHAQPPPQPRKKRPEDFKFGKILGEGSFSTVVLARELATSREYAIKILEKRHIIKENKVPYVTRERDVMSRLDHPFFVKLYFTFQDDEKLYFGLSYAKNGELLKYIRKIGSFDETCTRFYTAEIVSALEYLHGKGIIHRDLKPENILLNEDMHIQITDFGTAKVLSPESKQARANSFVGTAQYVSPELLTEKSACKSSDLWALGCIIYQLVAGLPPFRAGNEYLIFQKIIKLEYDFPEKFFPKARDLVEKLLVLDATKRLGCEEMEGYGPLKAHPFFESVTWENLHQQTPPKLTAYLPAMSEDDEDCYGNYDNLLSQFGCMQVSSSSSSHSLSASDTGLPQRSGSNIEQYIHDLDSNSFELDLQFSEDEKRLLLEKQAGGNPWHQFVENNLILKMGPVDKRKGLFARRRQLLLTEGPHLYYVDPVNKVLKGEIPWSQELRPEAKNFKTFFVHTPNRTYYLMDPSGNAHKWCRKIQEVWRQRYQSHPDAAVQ
In words: Test for the inhibition of PDK1 (flashplate, 33P-ATP). In kind it is biochemical. Particulars: His6-PDK1 3.4 nM, 4 μM ATP, 30° C., 60 min. The gist of the method:
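His6-PDK1(1-50) (3.4 nM) and a biotinylated peptide substrate (400 nM) were incubated 60 min at 30° C with 4 μM ATP containing ^33P-ATP and test compound. Incorporated radioactivity was counted after subtracting a 100 nM staurosporine blank and expressed as % of control; IC50 derived from these.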

Test [2] deals with PDK1 kinase activity (phospho-T308-PKB) in PC3 cells. In words: Cellular testing of PDK1 kinase inhibitors in PC3 cells (Luminex, phospho-T308-PKB). In kind it is cell-based. The note with it: Homo sapiens, PC-3, 0.5 h, 30 min incubation, serum-free, read-out: IC50 PC3 cells [P-PKB T308]. The procedure:
Method for the Cellular Testing of PDK1 Kinase Inhibitors in PC3 Cells.
The cellular assay for the determination of the PDK1 kinase activity is carried out as a Luminex assay in the 96-well format. PC3 cells are shown at 20,000 cells per well in 100 μl of medium (45% of […]/45% of Ham's F12/10% of FCS) and incubated on the following day for 30 min with a serial dilution of the test substance (7 concentrations) under serum-free conditions. The cells are subsequently lysed using 90 μl of lysis buffer (20 mM tris/HCl pH 8.0, 150 mM NaCl, 1% of NP40, 10% of glycerol, 1% of phosphatase inhibitor I, 1% of phosphatase inhibitor II, 0.1% of protease inhibitor cocktail III, 0.01% of benzonase) per well, and the lysates are separated off from insoluble cell constituents by means of centrifugation through a 96-well filter plate (0.65 μm). The lysates are incubated overnight at 4° C. with shaking with Luminex beads to which an anti-total PKB antibody is coupled. The detection is carried out on the following day by addition of a phospho-T308-PKB antibody and a species-specific peroxidase-labelled secondary antibody. The detection of phospho-T308-PKB is carried out by measurement in a Luminex100 instrument by determination of 100 events per cavity in a measurement time of 60 sec. As pharmacological blank, the signals obtained from cells which have been treated with 10 μM staurosporin are subtracted from all other batches. The control value used for maximum phosphorylation of PKB on T308 are the signals from cells which have only been treated with the solvent (0.3% of DMSO). The values of the batches treated with test substance are calculated therefrom as percentage of control, and IC50 values are determined by means of RS1.

Turning to `CCC(O)(c1ccncc1)c1cc(-c2c[nH]c3ncc(-c4cn[nH]c4)cc23)nc(N)n1` (stereo not drawn) [A53, 1-{2-amino-6-[5-(1H-pyrazol-4-yl)-1H-pyrrolo[2,3-b]pyridin-3-yl]pyrimidin-4-yl}-1-pyridin-4-ylpropan-1-ol], the IC50 in test [1] was 0.0019 µM; in test [2], 0.692 µM. The like results for `CCCC(O)(c1ccncc1)c1cc(-c2c[nH]c3ncc(-c4cnn(C)c4)cc23)nc(N)n1` (stereo not drawn) [A35, 1-{2-amino-6-[5-(1-methyl-1H-pyrazol-4-yl)-1H-pyrrolo[2,3-b]pyridin-3-yl]-pyrimidin-4-yl}-1-pyridin-4-ylbutan-1-ol] were, in that order, 0.003 µM and 0.21 µM. On the same counts, the results for `CCCC(O)(c1cccc(F)c1)c1cc(-c2c[nH]c3ncc(-c4cnn(C)c4)cc23)nc(N)n1` (stereo not drawn) [A116, 1-{2-amino-6-[5-(1-methyl-1H-pyrazol-4-yl)-1H-pyrrolo[2,3-b]pyridin-3-yl]-pyrimidin-4-yl}-1-(3-fluorophenyl)butan-1-ol] are 0.044 µM and 0.28 µM. For the molecule `CC[C@](O)(c1ccncc1)c1cc(-c2c[nH]c3ncc(-c4cnn(CC(=O)N5CCCCC5)c4)cc23)nc(N)n1` (single isomer, unassigned) [A45], the half-maximal inhibitory concentration (IC50) turned out to be 0.008 µM in test [1] and 0.348 µM in test [2]. On to `CC(C)[C@@](O)(c1ccccc1)c1cc(-c2c[nH]c3ncc(-c4cnn(C)c4)cc23)nc(N)n1` (single isomer, unassigned) [A127], for which the results for the IC50 in test [1] and in test [2] were 0.028 µM and 0.011 µM, respectively. On to `CC[C@@](O)(c1ccc(F)cc1)c1cc(-c2c[nH]c3ncc(-c4cnn(C)c4)cc23)nc(N)n1` (single isomer, unassigned) [A121], for which the IC50 worked out at 0.048 µM in test [1] and 0.018 µM in test [2]. On the same counts, the results for `Cn1cc(-c2cnc3[nH]cc(-c4cc([C@@](C)(O)c5cccc(Cl)c5F)nc(N)n4)c3c2)cn1` (single isomer, unassigned) [A137] are 0.028 µM and 0.014 µM. The like results for `CC(O)(c1ccccc1)c1cc(-c2c[nH]c3ncc(-c4cnn(C5CCNCC5)c4)cc23)nc(N)n1` (stereo not drawn) [A13, 1-{2-amino-6-[5-(1-piperidin-4-yl-1H-pyrazol-4-yl)-1H-pyrrolo[2,3-b]pyridin-3-yl]pyrimidin-4-yl}-1-phenylethanol] were, in that order, 0.53 µM and 1.2 µM. The like results for `CC[C@](O)(c1cc(-c2c[nH]c3ncc(-c4cnn(C)c4)cc23)nc(N)n1)c1ccncc1F` (single isomer, unassigned) [A131] were, in that order, 0.0038 µM and 0.011 µM.

Turning to `COCOC(C)(c1cc(-c2c[nH]c3ncc(-c4cnn(C)c4)cc23)nc(N)n1)c1ccccc1F` (stereo not drawn) [A119, 4-[1-(2-fluorophenyl)-1-methoxymethoxyethyl]-6-[5-(1-methyl-1H-pyrazol-4-yl)-1H-pyrrolo[2,3-b]pyridin-3-yl]pyrimidin-2-ylamine], the IC50 in test [1] was determined as 0.036 µM; in test [2], 0.47 µM. On the same counts, the results for `CC[C@](O)(c1cc(-c2c[nH]c3ncc(-c4cnn(C)c4)cc23)nc(N)n1)c1cccc(F)c1F` (single isomer, unassigned) [A125] are 0.0079 µM and 0.014 µM. On the same counts, the results for `Cn1cc(-c2cnc3[nH]cc(-c4cc(C(C)(O)c5ccncn5)nc(N)n4)c3c2)cn1` (stereo not drawn) [A113, 1-{2-amino-6-[5-(1-methyl-1H-pyrazol-4-yl)-1H-pyrrolo[2,3-b]pyridin-3-yl]-pyrimidin-4-yl}-1-pyrimidin-4-ylethanol] are 0.031 µM and 7.3 µM. The like results for `COCOC(C)(c1cc(-c2c[nH]c3ncc(-c4cnn(C)c4)cc23)nc(N)n1)c1ccccc1C` (stereo not drawn) [A18, 4-(1-methoxymethoxy-1-o-tolylethyl)-6-[5-(1-methyl-1H-pyrazol-4-yl)-1H-pyrrolo[2,3-b]pyridin-3-yl]pyrimidin-2-ylamine] were, in that order, 0.032 µM and 0.069 µM.

As to `Cn1cc(-c2cnc3[nH]cc(-c4cc([C@](O)(c5ccccc5)C(F)(F)F)nc(N)n4)c3c2)cn1` (single isomer, unassigned) [A124], the IC50 in test [1] amounted to 0.17 µM; in test [2], 0.048 µM. On the same counts, the results for `Cn1cc(-c2cnc3[nH]cc(-c4cc(C(C)(O)c5cccc(F)c5)nc(N)n4)c3c2)cn1` (stereo not drawn) [A105, 1-{2-amino-6-[5-(1-methyl-1H-pyrazol-4-yl)-1H-pyrrolo[2,3-b]pyridin-3-yl]-pyrimidin-4-yl}-1-(3-fluorophenyl)ethanol] are 0.013 µM and 0.11 µM.

On to `CNc1nc(-c2c[nH]c3ncc(-c4cnn(CCO)c4)cc23)cc(C(C)(O)c2ccccc2)n1` (single isomer, unassigned) [A90, 1-(6-{5-[1-(2-hydroxyethyl)-1H-pyrazol-4-yl]-1H-pyrrolo[2,3-b]pyridin-3-yl}-2-methylaminopyrimidin-4-yl)-1-phenylethanol], for which the half-maximal inhibitory concentration (IC50) in test [1] worked out at 0.021 µM. The same measure, in the same setting: with `Cn1cc(-c2cnc3[nH]cc(-c4cc(C(C)(O)c5ccc(CO)cc5)nc(N)n4)c3c2)cn1` (stereo not drawn) [A31, 1-{2-amino-6-[5-(1-methyl-1H-pyrazol-4-yl)-1H-pyrrolo[2,3-b]pyridin-3-yl]-pyrimidin-4-yl}-1-(4-hydroxymethylphenyl)ethanol] the figure was 0.044 µM; with `Cn1cc(-c2cnc3[nH]cc(-c4cc(C(C)(O)c5ccncc5)nc(N)n4)c3c2)cn1` (stereo not drawn) [A64, 1-{2-amino-6-[5-(1-methyl-1H-pyrazol-4-yl)-1H-pyrrolo[2,3-b]pyridin-3-yl]-pyrimidin-4-yl}-1-pyridin-4-ylethanol], 0.0033 µM; with `CC(O)(c1ccccc1)c1cc(-c2c[nH]c3ncc(-c4cnn(CCF)c4)cc23)nc(N)n1` (stereo not drawn) [A81, 1-(2-amino-6-{5-[1-(2-fluoroethyl)-1H-pyrazol-4-yl]-1H-pyrrolo[2,3-b]pyridin-3-yl}pyrimidin-4-yl)-1-phenylethanol], 0.019 µM. Same read-out and setting: with `CNc1nc(-c2c[nH]c3ncc(-c4cnn(CCO)c4)cc23)cc(C(C)(O)c2ccccc2)n1` (single isomer, unassigned) [A91, 1-(6-{5-[1-(2-hydroxyethyl)-1H-pyrazol-4-yl]-1H-pyrrolo[2,3-b]pyridin-3-yl}-2-methylaminopyrimidin-4-yl)-1-phenylethanol] the figure was 0.05 µM; with `CCC(OCOC)(c1cc(-c2c[nH]c3ncc(-c4cnn(C)c4)cc23)nc(N)n1)c1ccncc1F` (stereo not drawn) [A32, 4-[1-(3-fluoropyridin-4-yl)-1-methoxymethoxypropyl]-6-[5-(1-methyl-1H-pyrazol-4-yl)-1H-pyrrolo[2,3-b]pyridin-3-yl]pyrimidin-2-ylamine], 0.025 µM. Same read-out and setting: the figure for `CO[C@](C)(c1ccccc1)c1cc(-c2c[nH]c3ncc(-c4cnn(CCO)c4)cc23)nc(N)n1` (single isomer, unassigned) [A92] is 0.035 µM. The molecule `CC(C(=O)N1CCCC1)n1cc(-c2cnc3[nH]cc(-c4cc(C(C)(O)c5ccccc5)nc(N)n4)c3c2)cn1` (stereo not drawn) [A14, 2-(4-{3-[2-amino-6-(1-hydroxy-1-phenylethyl)pyrimidin-4-yl]-1H-pyrrolo-[2,3-b]pyridin-5-yl}pyrazol-1-yl)-1-pyrrolidin-1-ylpropan-1-one] yielded an IC50 in test [1] of 0.039 µM. The same measure, in the same setting: with `CCC(O)(c1ccncc1)c1cc(-c2c[nH]c3ncc(-c4cnn(C)c4)cc23)nc(N)n1` (single isomer, unassigned) [A21, 1-{2-amino-6-[5-(1-methyl-1H-pyrazol-4-yl)-1H-pyrrolo[2,3-b]pyridin-3-yl]-pyrimidin-4-yl}-1-pyridin-4-ylpropan-1-ol] the figure was 0.036 µM.

The IC50 is the concentration at which inhibition is half-maximal.
